Read-outs that look alike come from different tables or passages of the source.
What was measured:
Type in all cases: cell-based
[1] = system: HIV-1 clinical isolate 6; assay: PI sensitivity of PI-resistant clinical isolate 6 in PHA-PBMC, p24; settings: for IC50: Human immunodeficiency virus 1, isolate 6: L10I, K14R, B41K, H46L, I54V, L63P, A71V, V82A, L90M, I93L, PHA-PBMC, p24
[2] = system: HIV-1UIC-P62; assay: PI sensitivity of compound 1-selected HIV-1UIC-P62 in MT-2 cells, MTT assay; settings: HIV-1UIC-P62 (L10F, A28S, M46I, I50V, A71V, N88D), day 7
[3] = system: HIV-1APV-P30; assay: PI sensitivity of APV-selected HIV-1APV-P30 in MT-2 cells, MTT assay
[4] = system: HIV-1 clinical isolate 7; assay: PI sensitivity of PI-resistant clinical isolate 7 in PHA-PBMC, p24; settings: for IC50: Human immunodeficiency virus 1, isolate 7: L10I, L24I, L33F, E35D, H36I, H37S, N46L, I54V, R57K, I62V, L63P, A71V, G73S, V82A, PHA-PBMC, p24
[5] = system: HIV-1NL4-3; settings: for IC50: Human immunodeficiency virus 1, MT2, 168 h, HIV-1NL4-3 (wild type), MT-2 cells, MTT assay, day 7
[6] = system: HIV-1Ba-L; assay: microbe, parasite or virus in culture; settings: Human immunodeficiency virus 1, 168 h, PBNC (PHA-PBMC), p24 production, day 7, read-out: MEAN IC50 (μM) ± SDs
Procedure: (§1) The sensitivities of HIV-1LAI, HIV-1Ba-L, HIV-2EHO and the primary HIV-1 isolates against various drugs were determined as previously described with minor modifications (Shiraska et al., Proc. Natl. Acad. Sci. USA, 92, 2398-2402 (1995)).

[7] = system: HIV-1LAI; assay: microbe, parasite or virus in culture; settings: day 7, read-out: MEAN IC50 (μM) ± SDs
Procedure: as §1

[8] = system: HIV-1 clinical isolate 8; assay: PI sensitivity of PI-resistant clinical isolate 8 in PHA-PBMC, p24; settings: for IC50: isolate 8: L10R, H37D, N46I, I62V, L63P, A71V, G73S, V77I, V82T, L90M, I93L, PHA-PBMC, p24
[9] = system: HIV-1 clinical isolate 2; assay: PI sensitivity of PI-resistant clinical isolate 2 in PHA-PBMC, p24; settings: for IC50: isolate 2: L10I, I15V, K20R, N36I, H46L, I54V, K55R, I62V, L63P, K70D, V82A, L89N, PHA-PBMC, p24
[10] = system: HIV-1 clinical isolate 1; assay: PI sensitivity of PI-resistant clinical isolate 1 in PHA-PBMC, p24; settings: for IC50: Human immunodeficiency virus 1, isolate 1: L10I, K14R, L33I, N36I, H46I, F53L, K55R, I62V, L63P, A71V, G73S, V82A, L90M, I93L, PHA-PBMC, p24
[11] = system: HIV-2EHO; assay: Drug sensitivity of HIV-2EHO in MT-2 cells, MTT assay; settings: HT-2 (footnote: MT-2 cells), day 7, read-out: MEAN IC50 (μM) ± SDs
Procedure: as §1

[12] = system: HIV-1 clinical isolate 5; assay: PI sensitivity of PI-resistant clinical isolate 5 in PHA-PBMC, p24; settings: for IC50: isolate 5: L10I, K43T, N46L, I54L, L63P, A71T, V82A, L90N, D92K, PHA-PBMC, p24
[13] = system: HIV-1ERS104pre (wild-type clinical strain); assay: PI sensitivity of wild-type clinical isolate in PHA-PBMC, p24
[14] = system: highly cross-resistant HIV-1 strains derived from AIDS patients
[15] = system: HIV-1 clinical isolate 4; assay: PI sensitivity of PI-resistant clinical isolate 4 in PHA-PBMC, p24; settings: for IC50: isolate 4: L10I, V11I, T12E, I15V, L19I, B41K, H46L, L63P, A71T, V82A, L90M, PHA-PBMC, p24
[16] = system: HIV-1 clinical isolate 3; assay: PI sensitivity of PI-resistant clinical isolate 3 in PHA-PBMC, p24; settings: for IC50: isolate 3: L10I, I15V, E35D, N37E, K45R, I54V, L63P, A71V, V82I, L90N, I93L, C95F, PHA-PBMC, p24
[17] = Human immunodeficiency virus 1, MT2, 168 h
[18] = Human immunodeficiency virus 1, 168 h, PBMC (PHA-PBMC), p24 production
[19] = Human immunodeficiency virus 1, MT2, 168 h, HT-2 (footnote: MT-2 cells), MTT assay
[20] = Human immunodeficiency virus 2, MT2, 168 h
[21] = Human immunodeficiency virus 1, read-out: IC50 μM
[22] = multidrug resistant patient isolates

CC(C)CN(C[C@@H](O)[C@H](Cc1ccccc1)NC(=O)O[C@H]1CCOC1)S(=O)(=O)c1ccc(N)cc1 [APV, Amprenavir]
IC50 [1]: 0.16 µM
IC50 [2, 17]: 0.83 µM
IC50 [3, 17]: > 1 µM
IC50 [4]: 0.49 µM
IC50 [5]: 0.042 µM
IC50 [6]: 0.023 ± 0.009 µM
IC50 [7, 18]: 0.017 ± 0.003 µM
IC50 [7, 19]: 0.041 ± 0.01 µM
IC50 ([8]; Human immunodeficiency virus 1): 0.15 µM
IC50 ([9]; Human immunodeficiency virus 1): 0.28 µM
IC50 [10]: 0.27 µM
IC50 [11, 20]: 0.53 ± 0.03 µM
IC50 ([12]; Human immunodeficiency virus 1): 0.67 µM
IC50 [13, 21]: 0.025 µM
antiviral activity against patient isolates with multiple mutations compared with wild type HIV strains (in words) [14, 22]: much less effective
IC50 ([15]; Human immunodeficiency virus 1): 0.31 µM
IC50 ([16]; Human immunodeficiency virus 1): 0.26 µM

Cc1cn([C@H]2C[C@H](N=[N+]=[N-])[C@@H](CO)O2)c(=O)[nH]c1=O [AZT, 3′-azido-2′,3′-dideoxythymidine]
IC50 [6]: 0.011 ± 0.007 µM
IC50 [7, 18]: 0.003 ± 0.0002 µM
IC50 [7, 19]: 0.024 ± 0.003 µM
IC50 [11, 20]: 0.003 ± 0.001 µM

Nc1ccn([C@@H]2CS[C@H](CO)O2)c(=O)n1 [Compound 3TC, LAMIVUDINE]
IC50 [6]: 0.054 ± 0.046 µM
IC50 [7, 18]: 0.021 ± 0.018 µM
IC50 [7, 19]: 0.66 ± 0.01 µM
IC50 [11, 20]: 0.4 ± 0.25 µM

CC(C)(C)NC(=O)[C@@H]1CN(Cc2cccnc2)CCN1C[C@@H](O)C[C@@H](Cc1ccccc1)C(=O)N[C@H]1c2ccccc2C[C@H]1O [IDV, Indinavir]
IC50 [1]: 0.3 µM
FOLD CHANGE of IC50 ([1]; isolate 6 compared to HIV-1wt (HIV-1ERS104pre)): (23) fold
IC50 [2, 17]: 0.08 µM
FOLD CHANGE of IC50 ([3]; HIV-1APV-P30 compared to HIV-1NL4-3 (wild type)): (30) fold
IC50 [3, 17]: 0.32 µM
IC50 [4]: > 1 µM
FOLD CHANGE of IC50 ([4]; isolate 7 compared to HIV-1wt (HIV-1ERS104pre)): (>77) fold
FOLD CHANGE of IC50 ([5]; HIV-1NL4-3, reference (=1)): (1) fold
IC50 [5]: 0.011 µM
IC50 [6]: 0.017 ± 0.011 µM
IC50 [7, 18]: 0.015 ± 0.004 µM
IC50 [7, 19]: 0.019 ± 0.009 µM
IC50 ([8]; Human immunodeficiency virus 1): 0.55 µM
FOLD CHANGE of IC50 ([8]; isolate 8 compared to HIV-1wt (HIV-1ERS104pre)): (42) fold
IC50 ([9]; Human immunodeficiency virus 1): 0.49 µM
FOLD CHANGE of IC50 ([9]; isolate 2 compared to HIV-1wt (HIV-1ERS104pre)): (38) fold
IC50 [10]: > 1 µM
FOLD CHANGE of IC50 ([10]; isolate 1 compared to HIV-1wt (HIV-1ERS104pre)): (>77) fold
IC50 [11, 20]: 0.01 ± 0.004 µM
IC50 ([12]; Human immunodeficiency virus 1): > 1 µM
FOLD CHANGE of IC50 ([12]; isolate 5 compared to HIV-1wt (HIV-1ERS104pre)): (>77) fold
IC50 [13, 21]: 0.013 µM
FOLD CHANGE of IC50 ([13]; wild type HIV-1ERS104pre, reference (=1)): (1) fold
antiviral activity against patient isolates with multiple mutations compared with wild type HIV strains (in words) [14]: dramatically less potent
IC50 ([15]; Human immunodeficiency virus 1): 0.21 µM
FOLD CHANGE of IC50 ([15]; isolate 4 compared to HIV-1wt (HIV-1ERS104pre)): (16) fold
IC50 ([16]; Human immunodeficiency virus 1): 0.49 µM
FOLD CHANGE of IC50 ([16]; isolate 3 compared to HIV-1wt (HIV-1ERS104pre)): (38) fold

Cc1c(O)cccc1C(=O)N[C@@H](CSc1ccccc1)[C@H](O)CN1C[C@H]2CCCC[C@H]2C[C@H]1C(=O)NC(C)(C)C [NFV, Nelfinavir]
IC50 [1]: > 1 µM
IC50 [2, 17]: 0.11 µM
IC50 [3, 17]: > 1 µM
IC50 [4]: > 1 µM
IC50 [5]: 0.023 µM
IC50 [7, 18]: 0.009 ± 0.0003 µM
IC50 [7, 19]: 0.005 ± 0.002 µM
IC50 ([8]; Human immunodeficiency virus 1): > 1 µM
IC50 ([9]; Human immunodeficiency virus 1): 0.33 µM
IC50 [10]: > 1 µM
IC50 [11, 20]: 0.02 ± 0.01 µM
IC50 ([12]; Human immunodeficiency virus 1): 0.41 µM
IC50 [13, 21]: 0.023 µM
antiviral activity against patient isolates with multiple mutations compared with wild type HIV strains (in words) [14, 22]: dramatically less potent
IC50 ([15]; Human immunodeficiency virus 1): 0.09 µM
IC50 ([16]; Human immunodeficiency virus 1): > 1 µM

COc1ccc(S(=O)(=O)N(CC(C)C)C[C@@H](O)[C@H](Cc2ccccc2)NC(=O)O[C@H]2CO[C@H]3OCC[C@H]32)cc1 [UIC-94003]
IC50 [2]: 0.021 µM
IC50 ([3]; HIV-1APV-P30 (L10F, V32I, M46I, I54M, A71V, I84V), MT-2 cells, MTT assay, day 7, read-out: IC50): 0.029 µM
IC50 [8]: 0.001 µM
IC50 [9]: 0.0013 µM
IC50 [11]: 0.0005 ± 7e-05 µM
IC50 [12]: 0.0024 µM
IC50 ([13]; wild type HIV-1ERS104pre (L63P), PHA-PBMC, p24, read-out: IC50): 0.0007 µM
IC50 ([14]; eight highly PI-resistant clinical isolates, PHA-PBMC, read-out: IC50 values, range over all eight isolates): 0.0005 to 0.0055 µM
antiviral activity against patient isolates with multiple mutations compared with wild type HIV strains (in words) [14, 22]: equivalent
IC50 [15]: 0.0016 µM
IC50 [16]: 0.001 µM

OC[C@@H]1CC[C@H](n2cnc3c(O)ncnc32)O1 [ddI, 2′,3′-dideoxyinosine]
IC50 [6]: 1.5 ± 1.1 µM
IC50 [7, 18]: 0.62 ± 0.02 µM
IC50 [7, 19]: 3.4 ± 0.2 µM
IC50 [11, 20]: 2.8 ± 0.6 µM
